{"source": "paper PMC9093066", "about": "(Bioorganic & Medicinal Chemistry, 2022)", "key": {"[1]": {"biological_target": "T1, NudF ADP-ribose pyrophosphatase (Escherichia coli, UniProt Q93K97)", "T1 sequence (Q93K97 1-209)": "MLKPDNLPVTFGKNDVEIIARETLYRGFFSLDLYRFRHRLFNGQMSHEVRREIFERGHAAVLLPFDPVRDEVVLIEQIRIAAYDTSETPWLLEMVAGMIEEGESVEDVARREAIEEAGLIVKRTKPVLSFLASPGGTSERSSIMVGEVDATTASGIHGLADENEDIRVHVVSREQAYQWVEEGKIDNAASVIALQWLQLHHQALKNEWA", "assay": "NudF-mediated counterscreen of ADPr-Glo assay", "assay_type": "biochemical", "details": "NudF only with free ADP-ribose"}, "SARS-CoV-2 Mac1 [2]": {"biological_target": "T2, SARS-CoV-2 Mac1 (Severe acute respiratory syndrome coronavirus 2, UniProt P0DTD1)", "assay_type": "binding", "details": "for SARS CoV2 Mac1 Alpha (IC50): AlphaScreen ADP-ribose binding, IC50 ± SD of three replicates"}, "SARS-CoV-2 Mac1 [3]": {"biological_target": "T2, SARS-CoV-2 Mac1", "assay_type": "binding", "details": "DSF, 300 µM compound, ± SD of three replicates"}, "[4]": {"system": "panel of MAR binding proteins from viruses and humans"}, "SARS-CoV-2 Mac1 [5]": {"biological_target": "T2, SARS-CoV-2 Mac1", "assay_type": "biochemical", "details": "ADPr-Glo dose response, n = 2"}, "Mac1": {"system": "Mac1", "details": "cited from earlier work"}}, "data": [{"compound": "O=C(O)C1CCCN(c2ncnc3[nH]ccc23)C1", "note": "(centres unmarked) [Compound 6g, 1-(7H-pyrrolo[2,3–d]pyrimidin-4-yl)piperidine-3-carboxylic acid]", "values": [{"measurement": "activity in NudF-mediated counterscreen", "setting": "[1]", "value": "Neither compound demonstrated any activity"}]}, {"compound": "O=C(O)C1CCN(c2ncnc3[nH]ccc23)CC1", "note": "[Compound 6h, 1-(7H-pyrrolo[2,3–d]pyrimidin-4-yl)piperidine-4-carboxylic acid]", "values": [{"measurement": "fold improvement of potency over the initial fragment", "setting": "SARS-CoV-2 Mac1 [2]; vs fragment 1", "value": "~10", "unit": "fold"}, {"measurement": "Δ Tm (°C) @300 µM", "setting": "SARS-CoV-2 Mac1 [3]", "value": "> 1", "unit": "°C"}]}, {"compound": "COC(=O)[C@@H]1CN(c2ncnc3[nH]ccc23)CCN1.O=C(O)C(F)(F)F", "note": "[Compound 10a, Methyl (S)-4-(7H-pyrrolo[2,3–d]pyrimidin-4-yl)piperazine-2-carboxylate ●TFA]", "values": [{"measurement": "SARS CoV2 Mac1 Alpha (IC50)", "setting": "SARS-CoV-2 Mac1 [2]", "value": "Inactive"}]}, {"compound": "CCOC(=O)[C@H](CC(C)C)Nc1ncnc2[nH]ccc12", "note": "[Compound 14b, Ethyl (7H-pyrrolo[2,3–d]pyrimidine-4-yl)-L-leucinate]", "values": [{"measurement": "SARS CoV2 Mac1 Alpha (IC50)", "setting": "SARS-CoV-2 Mac1 [2]", "value": "completely inactive"}]}, {"compound": "CC(C)C[C@H](Nc1ncnc2[nH]ccc12)C(=O)O", "note": "[Compound 15b, (7H-pyrrolo[2,3–d]pyrimidine-4-yl)-L-leucinate]", "values": [{"measurement": "SARS CoV2 Mac1 Alpha (IC50)", "setting": "SARS-CoV-2 Mac1 [2]", "value": "completely inactive"}]}, {"compound": "O=C(O)[C@H](Cc1c[nH]c2ccccc12)Nc1ncnc2[nH]ccc12", "note": "[Compound 15c, (7H-pyrrolo[2,3–d]pyrimidin-4-yl)-L-tryptophan]", "values": [{"measurement": "selectivity in panel of ADP-ribose binding proteins", "setting": "[4]", "value": "remarkably selective for coronavirus macrodomains"}, {"measurement": "activity in NudF-mediated counterscreen", "setting": "[1]", "value": "Neither compound demonstrated any activity"}, {"measurement": "inhibition of Mac1 enzyme (ADP-ribosylhydrolase) activity", "setting": "SARS-CoV-2 Mac1 [5]", "value": "dose-dependent inhibition"}]}, {"compound": "O=C(O)CNc1ncnc2[nH]ccc12", "note": "[Compound 15d, (7H-pyrrolo[2,3–d]pyrimidin-4-yl)glycine]", "values": [{"measurement": "SARS CoV2 Mac1 Alpha (IC50)", "setting": "SARS-CoV-2 Mac1 [2]", "value": "did not demonstrate any inhibitory effect"}]}, {"compound": "O=C(O)[C@@H]1CCC[C@@H]1Nc1ncnc2[nH]ccc12", "note": "[Compound 19, (1R, 2S)-2-((7H-pyrrolo[2,3–d]pyrimidin-4-yl)amino)cyclopentane-1-carboxylic acid]", "values": [{"measurement": "Δ Tm (°C) @300 µM", "setting": "SARS-CoV-2 Mac1 [3]", "value": "> 1", "unit": "°C"}]}, {"compound": "c1ccc2c(CCNc3ncnc4[nH]ccc34)c[nH]c2c1", "note": "[Compound 20, N-(2-(1H-indol-3-yl)ethyl)-7H-pyrrolo[2,3–d]pyrimidin-4-amine]", "values": [{"measurement": "fold less potent than 15c", "setting": "SARS-CoV-2 Mac1 [2]", "value": "approximately 7 fold"}]}, {"compound": "Cc1ccc(C(=O)Nc2ccc(S(=O)(=O)O)c3cc(S(=O)(=O)O)cc(S(=O)(=O)O)c23)cc1NC(=O)c1cccc(NC(=O)Nc2cccc(C(=O)Nc3cc(C(=O)Nc4ccc(S(=O)(=O)O)c5cc(S(=O)(=O)O)cc(S(=O)(=O)O)c45)ccc3C)c2)c1", "note": "[Suramin]", "values": [{"measurement": "stabilization of the protein in DSF assay", "setting": "Mac1", "value": "concentration dependent stabilization of the protein"}]}, {"compound": "Methyl (R)-4-(7H-pyrrolo[2,3–d]pyrimidin-4-yl)piperazine-2-carboxylate ●TFA [Compound 10b]", "values": [{"measurement": "SARS CoV2 Mac1 Alpha (IC50)", "setting": "SARS-CoV-2 Mac1 [2]", "value": "Inactive"}]}]}
